Read-outs that look alike come from different tables or passages of the source.
Tests used:
eosinophil = test: Phase II study: eosinophil concentrations by ethnicity and responder status; format: in vivo, human
Method: Laboratory tests were performed at screening, Day 0, Week 4 and Week 8. If Week 8 results indicated a clinically significant change from baseline, laboratory tests were also performed at Week 10. The tests included urinalysis, hematology with differential and coagulation testing, a standard chemistry panel (chemistry includes liver function tests and cholesterol), coagulation, serum pregnancy test (screening and week 8 early termination visits) for women of childbearing potential (WOCBP). At baseline (Day 0), week 2, week 4 and week 10 visits, a urine pregnancy test was performed for women of childbearing potential (conducted at the investigator site).
Eosinophils are a type of white blood cell that play an important role in the body's response to allergic reactions, asthma, and infection with parasites. Eosinophils usually account for less than 7% of the circulating white blood cells (100 to 500 eosinophils per microliter of blood). These cells have a role in the protective immunity against certain parasites but also contribute to the inflammation that occurs in allergic disorders.
FIG. 30A-B. In particular, 56% of DS107-treated African America patients were classified as Responders, versus only 7% of Caucasian patients. […]

[1] = Phase one study: effect of food on single 1000 mg dose PK (fasted vs fed); format: in vivo, human; settings: for AUC0-24, mean, free DGLA, baseline-corrected plasma / AUC0-24/Dose, mean, free DGLA, baseline-corrected plasma / AUC0-24/Dose, mean, total DGLA, baseline-corrected plasma / AUC0-inf, mean, free DGLA, baseline-corrected plasma / AUC0-inf/Dose, mean, free DGLA, baseline-corrected plasma / CL/F, mean, free DGLA, baseline-corrected plasma / Cmax, mean, free DGLA, baseline-corrected plasma / Cmax/Dose, mean, free DGLA, baseline-corrected plasma / Cmax/Dose, mean, total DGLA, baseline-corrected plasma / λz, mean, free DGLA, baseline-corrected plasma / λz, mean, total DGLA, baseline-corrected plasma / half-life / Tmax: 1000 mg single dose; for mean baseline-corrected AUC0-24, total DGLA vs free DGLA / mean baseline-corrected Cmax, total DGLA vs free DGLA / half-life / Tmax: 1000 mg; for half-life / Tmax: human, plasma, oral; for half-life: read-out: t1/2, median, free DGLA, baseline-corrected plasma (converted); for Tmax: read-out: tmax, median, free DGLA, baseline-corrected plasma
Method: Subjects were randomly assigned in a 3:1 ratio of DG107G to placebo by block randomization. Single dose part one of the study comprised three cohorts of eight subjects each, with the addition of Cohort four based on evaluation of the safety data of Cohort three by the Safety Monitoring Committee (SMC). A single oral dose of DS107G or matching placebo was administered to fasted subjects in Cohorts one to three (500, 1000, and 2000 mg, respectively) in parallel; subjects in Cohort four were administered a dose of 4000 mg following completion of Cohort three. Subjects in Cohort two received 1000 mg or matching placebo in the fed state at 14 days after the first dose.
Food effect was evaluated in Cohort two at least 14 days after the first dose at which time a second single dose was administered. Subjects were administered a 1000-mg dose of study drug with 240 mL of water after a 10-hour fasting period and 30 minutes after starting consumption of a meal. Subjects then refrained from food intake for at least 4 hours after dosing. Food consumption was standardized for at least 12 hours after dosing using a standardized high-fat meal (800 to 1000 kcal with 500 to 600 kcal from fat and 250 kcal from carbohydrates). A typical standard test meal consisted of two eggs fried in butter, two strips of bacon, two slices of toast with butter, 120 mL of hash brown potatoes, and 240 mL of whole milk.
Subjects in Cohort two undergoing evaluation of the food effect on oral 1000 mg DGLA capsules were restricted from food consumption for at least 4 hours after dosing. Food consumption was standardized for at least 12 hours post dose using a standardized high-fat meal.

## CCCCC/C=C\C/C=C\C/C=C\CCCCCCC(=O)O [DS107G, Dihomo gamma linolenic acid]
eosinophil; African American vs Caucasian patients, each time point measured
  eosinophil concentrations: statistically significant reductions
eosinophil; treated Responders vs Non-responders, all time points
  eosinophil concentration: statistically significant decrease
[1]; fasted
  AUC0-24, mean, free DGLA, baseline-corrected plasma: 3998.5 ng·h/mL
  AUC0-24/Dose, mean, free DGLA, baseline-corrected plasma: 4.00 h/kL
  AUC0-24/Dose, mean, total DGLA, baseline-corrected plasma: 215.37 h/kL
  AUC0-inf, mean, free DGLA, baseline-corrected plasma: 218955.6 ng·h/mL
  AUC0-inf/Dose, mean, free DGLA, baseline-corrected plasma: 218.96 h/kL
  CL/F, mean, free DGLA, baseline-corrected plasma: 0.1866 kL/h
  Cmax, mean, free DGLA, baseline-corrected plasma: 1602.8 ng/mL
  Cmax/Dose, mean, free DGLA, baseline-corrected plasma: 1.603 kL⁻¹
  Cmax/Dose, mean, total DGLA, baseline-corrected plasma: 15.750 kL⁻¹
  λz, mean, free DGLA, baseline-corrected plasma: 0.0487 h⁻¹
  λz, mean, total DGLA, baseline-corrected plasma: 0.0136 h⁻¹
  mean baseline-corrected AUC0-24, total DGLA vs free DGLA: ~54 fold
  mean baseline-corrected Cmax, total DGLA vs free DGLA: ~10 fold
  half-life: 28.3 h
  Tmax: 4 h
[1]; fed
  AUC0-24, mean, free DGLA, baseline-corrected plasma: 2102.7 ng·h/mL
  AUC0-24/Dose, mean, free DGLA, baseline-corrected plasma: 2.10 h/kL
  AUC0-24/Dose, mean, total DGLA, baseline-corrected plasma: 117.39 h/kL
  AUC0-inf, mean, free DGLA, baseline-corrected plasma: 29150.8 ng·h/mL
  AUC0-inf/Dose, mean, free DGLA, baseline-corrected plasma: 29.15 h/kL
  CL/F, mean, free DGLA, baseline-corrected plasma: 0.1658 kL/h
  Cmax, mean, free DGLA, baseline-corrected plasma: 520.2 ng/mL
  Cmax/Dose, mean, free DGLA, baseline-corrected plasma: 0.520 kL⁻¹
  Cmax/Dose, mean, total DGLA, baseline-corrected plasma: 10.317 kL⁻¹
  λz, mean, free DGLA, baseline-corrected plasma: 0.0403 h⁻¹
  λz, mean, total DGLA, baseline-corrected plasma: 0.0805 h⁻¹
  mean baseline-corrected AUC0-24, total DGLA vs free DGLA: ~56 fold
  mean baseline-corrected Cmax, total DGLA vs free DGLA: ~20 fold
  half-life: 141 h
  Tmax: 5 h
[1]; single 1000-mg dose
  free DGLA Cmax occurred sooner under fasted than fed conditions (median): 1 h
  higher rate and extent of total DGLA absorption under fasted conditions (mean Cmax and AUC0-24): approximately 50%
  mean baseline-corrected free DGLA Cmax, fasted vs fed: about 3 fold
  mean free DGLA baseline-corrected AUC0-24, fasted vs fed: about 2 fold
  total DGLA mean baseline-corrected AUC0-24, fasted vs fed: about 1.8 fold
  total DGLA mean baseline-corrected Cmax, fasted vs fed: about 1.5 fold
  total DGLA tmax occurred sooner under fasted than fed conditions: about 50%

Source: US20180333382A1, “PHARMACEUTICAL COMPOSITIONS COMPRISING DGLA AND USE OF SAME” (DS Biopharma Limited, priority 2017, published 2018)
